Key:
TFF2 mRNA expression = assay: RNA blot of TFF2 mRNA expression in mouse hepatoma cells exposed to TCDD; type: cell-based
Procedure: (§1) (A) RNA blot (30 μg total RNA) showing mRNA expression in mouse hepatoma cells of TFF2, CYP1A1 and the housekeeping gene GAPDH after exposure to increasing concentrations of TCDD. Mouse hepatoma cells were cultured in 6 cm petri dishes and exposed to TCDD dissolved in dimethyl sulfoxid (DMSO, 0.1% total volume) at concentrations indicated in the figure, or vehicle alone (“0 nM”) for 24 hours before cell harvest and RNA isolation. The band intensity of TFF2 (B) and CYP1A1 (C) was measured by Phosphor Imager analysis and normalized against expression of GAPDH. The numbers represent the fold increase of TFF2 and CYP1A1 mRNA expression compared to the corresponding vehicle-treated control.
(§2) (A) RNA blot (30 μg total RNA) showing mRNA expression in mouse hepatoma cells of TFF2, CYP1A1 and the housekeeping gene GAPDH after exposure to TCDD at increasing length of time. […] The band intensity of TFF2 (B) and CYP1A1 (C) was measured by Phosphor Imager analysis and normalized against expression of GAPDH. […]
(§3) The glandular part of mouse stomachs was removed and snap-frozen in liquid nitrogen. […] The filters were hybridized with specific 32P-labeled cDNA fragments and exposed to autoradiographic film and band intensity was quantified by Phosphoimager analysis (Fuji).

CYP1A1 mRNA expression = assay: RNA blot of CYP1A1 mRNA expression in mouse hepatoma cells exposed to TCDD; type: cell-based
Procedure: as §1, §2, §3

[1] = 10 nM TCDD, increasing length of time, vs vehicle
[2] = increasing concentrations of TCDD, 24 hours, vs vehicle (DMSO)

Clc1cc2c(cc1Cl)Oc1cc(Cl)c(Cl)cc1O2 [TCDD, 2,3,7,8-tetrachlorodibenzo-p-dioxin]
TFF2 mRNA expression normalized against GAPDH (TFF2 mRNA expression; [1]): time-dependent increase
TFF2 mRNA expression normalized against GAPDH (TFF2 mRNA expression; [2]): concentration-dependent increase
CYP1A1 mRNA expression normalized against GAPDH (CYP1A1 mRNA expression; [1]): time-dependent increase
CYP1A1 mRNA expression normalized against GAPDH (CYP1A1 mRNA expression; [2]): concentration-dependent increase

Reference: patent US7569352B2, “Method for identifying modulators of the dioxin/aryl hydrocarbon receptor (AHR)” (InDex Pharmaceuticals AB, priority 2003, dated 2009)
